Measured values: patent US20060194814A1, “Benzamide compounds” (priority 2003, published 2006)
Where a name gives a salt, the structure may show the parent alone. Read-outs that look alike come from different tables or passages of the source.

Legend:
P-450scc enzyme = experiment: Immunoblot of P-450scc expression in Y1 cells; format: cell-based, mouse; conditions: immunoblot of cell extracts
Experimental: At the end of the treatment protocol described above, Y1 cells at 90% confluency were washed 2 times with PBS, sonicated 15 seconds in extraction buffer and centrifuged at 18,500 g for 15 minutes at 4° C. Pellets were resuspended in ice-cold lysis buffer (1% Nonidet 40 in extraction buffer), sonicated briefly, and incubated on ice for 1 hour. After centrifugation (22,500 g×30 min, 4° C.), the supernatant was mixed in sample buffer 6× (0.27 M SDS, 0.6 M dithiothreitol, 0.18 M bromphenol blue in 7 ml of 0.5 M Tris-HCl, pH 6.8, and 3 ml glycerol) and boiled for 5 minutes. Proteins were subjected to SDS-PAGE (4-20% gradient SDS polyacrylamide gel) and electrophoretically transferred onto nitrocellulose membranes. The transblot sheets were blocked with 5% non fat dry milk in 25 mM Tris HCl, pH 7.5, 150 mM NaCl, and 0.1% Tween 20 overnight at 4° C. Membranes were then incubated with appropriately diluted primary antibodies 1:800 for anti-P-450scc (Research Diagnostics Inc. Flanders, N.J.) and 1:200 for anti-StAR (Amri et al., 1996), and the reaction was detected by a peroxidase-conjugated secondary antibody (Santa Cruz Biotechnology, Santa Cruz, Calif.) and enhanced chemiluminescence (Amersham Life, Arlington Heights, Ill.). The densities of the appropriate bands were determined using the OptiQuant Acquisition & Analysis software (Packard BioScience).

HMG-CoA reductase = HMG-CoA reductase activity in procaine-treated Y1 cells; format: cell-based, mouse; set-up: percent inhibition of HMG-CoA reductase activity: unit of the concentration uncertain
Experimental: Cells were washed twice with ice-cold PBS and incubated with ice-cold assay buffer (0.1M sucrose, 40 mM KH2PO4, 30 mM EDTA, 50 mM KCl, 5 mM DTT, 0.25% (v/v) of Brij 96, at pH 7.4) on ice for 20 minutes. After centrifugation for 3 minutes at 14000 g (4° C.) the supernatants were collected and used for HMG-CoA reductase activity assay. […] The reaction was started by adding substrate (^14C-HMG-CoA, 0.1 Ci) and stopped after 45 minutes by adding 10-1 of HCl 6M. ^3H-mevalonolactone was also added to the samples as an extraction recovery marker. After an additional 30 minutes incubation time, to allow complete lactonization of the product, the mixture was centrifuged.

HIV-1 IIIB strain [1] = experiment: HIV-1 IIIB replication in HeLa cells, 48 hours pre-medication; format: cell-based; conditions: 48 hours pretreatment; all concentrations tested
[2] = system: multi-drug resistant HIV MDR-769 strain; experiment: HIV MDR 769 strain replication in HeLa cells, without pre-medication; format: cell-based
HIV-1 IIIB strain [3] = experiment: HIV-1 IIIB replication in HeLa indicator cells (AV-Finder-HIV assay), no pre-medication; format: cell-based
HMG-CoA reductase mRNA = HMG-CoA reductase mRNA expression by Q-PCR in Y1 cells; format: cell-based, mouse
Experimental: After treatment, cells were stimulated with 1 mM dbcAMP for 24 hours. At the end of the incubation, total cell RNA was extracted using RNA STAT-60 (Tel-Test Inc, Friendswood, Tex.) according to the manufacturer's instructions. HMG-CoA reductase mRNA was quantified by Q-PCR using the ABI Prism 7700 sequence detection system (Perkin-Elmer/Applied Biosystems, Foster City, Calif.). RT reaction was performed using TaqMan® Reverse Transcription Reagents with 1 g total RNA and random hexamers as primers for each reaction according to the manufacturer's instructions. For quantifying mouse HMG-CoA reductase mRNA with Q-PCR, the primers were designed according to GenBank Accession Number BC 019782 using PE/AB Primer Express software, which is specifically designed for the selection of primers and probes. The forward primer was 5′-[…]-3′ (22 nucleotides; SEQ ID NO:1) and reverse primer was 5′-[…]-3′ (23 nucleotides; SEQ ID NO:2), respectively. The primers were synthesized by Bio-Synthesis Inc. (Lewisville, Tex.). Reactions were performed in a reaction mixture consisting of a 20 l volume solution containing 10 l SYBR® Green PCR Master Mix and 1 l primers mix (5 M each) with 2 l cDNA.

CCN(CC)CCOC(=O)c1ccc(N)cc1 [SP01, procaine HCl]
effect on expression of the P-450scc enzyme (P-450scc enzyme): did not modify | percent inhibition of HMG-CoA reductase activity (HMG-CoA reductase; concentration 1 (unit uncertain)): 44% | percent inhibition of HMG-CoA reductase activity (HMG-CoA reductase; concentration 10 (unit uncertain)): 72% | percent inhibition of HMG-CoA reductase activity (HMG-CoA reductase; concentration 100 (unit uncertain)): 70 | concentration giving maximal inhibition of HMG-CoA reductase activity (HMG-CoA reductase; dbcAMP stimulated): 10 µM | inhibition of HIV replication (HIV-1 IIIB strain [1]): 75% | effect on HIV MDR 769 strain replication [2]: effectively blocked | effect on HIV MDR 769 strain replication ([2]; concentrations higher than 1 nM): not effective | inhibition of HIV MDR 769 viral replication ([2]; concentrations up to 1 nM): 75% | efficacy in reducing HIV-1 IIIB replication compared to AZT, ddI or 3TC (HIV-1 IIIB strain [3]; human cells): efficacy higher than AZT, ddI or 3TC | efficacy on HIV-1 IIIB viral replication compared to 3TC (HIV-1 IIIB strain [3]; no pre-medication, concentrations up to 0.1 μM): higher efficacy than the classical antiviral agent 3TC | effect on dbcAMP-induced HMG-CoA reductase mRNA levels (HMG-CoA reductase mRNA; pretreatment for 24 hours): reduced in a dose-dependent manner | earliest treatment time inhibiting dbcAMP-induced HMG-CoA reductase mRNA expression (HMG-CoA reductase mRNA; time-course): 6 h
